19 compounds from patent US20250074902A1, “FUSED BICYCLIC HETEROARYL AMIDE COMPOUND AS PROTEIN AGGREGATION INHIBITOR” (SHANGHAI JINGXIN BIOMEDICAL CO., LTD., priority 2021, published 2025) can be followed below.

The term Kp denotes tissue or fluid exposure divided by exposure in the circulation. The half-life is the time in which the quantity being followed falls by half. Broadly, the inhibition is how much of the control response was suppressed.

A short description of data set [1]: Determination of brain/plasma ratio. The format is in vivo. The following applies: mouse, male C57BL/6 mice, oral 10 mg/kg, ratio of average drug concentration in brain tissue to plasma. How it is done:
Male C57BL/6 mice were used as research subjects, and brain perfusion technology was used to investigate the pharmacokinetic characteristics of the compound of the present invention transported through the blood-brain barrier, and the drug concentrations in the blood and brain tissue samples of mice after 0.25 h, 1 h, 4 h and 8 h were detected, and the ratio of the average drug concentrations in brain tissue and plasma was calculated.
Oral administration solution (1.000 mg·ml^−1) of the compound of the present invention was prepared:
Weigh 3.116 mg of the compound and place it in an EP tube, then add DMS 0.156 mL, Solutol 0.312 mL and ultrapure water 2.648 mL (the volume ratio of the three is 5:10:85, v:v:v), vortex ultrasound to fully dissolve it, and the final actual concentration is 1.000 mg·mL-1 of the clear administration solution.
C57BL/6 mice (male), purchased from Sibeifu (Beijing) Biotechnology Co., Ltd., experimental animal production license number: SCXK (Beijing) 2019-0010.
Fasting: Overnight fasting, no water withdrawal, feed provided 4 hours after medication.
Select qualified healthy C57BL/6 mice, 3 per group. After oral administration (10 mg/kg), about 150 μL of whole blood was collected from the orbital venous plexus of mice at 0.25 h, 1 h, 4 h and 8 h after medication and placed in a centrifuge tube containing EDTA-K2 anticoagulant. After administration, the mice were anesthetized about 1 minute before the scheduled time point, and brain perfusion was performed at 0.25 h, 1 h, 4 h and 8 h after administration. After perfusion, the mouse brain tissue samples were dissected with ophthalmic scissors and ophthalmic forceps, and the remaining blood on the tissue surface was immediately rinsed with ultrapure water within 5 min, wiped dry, weighed, and 4 times the volume of acetonitrile-water solution (10:90, v:v) was added and homogenized, and then the homogenate was placed in a −20° C. refrigerator for testing. The collected samples were placed in an ice bath during the entire experimental operation.
According to the time points specified in the above experimental protocol, about 150 μL of whole blood was collected from the orbital venous plexus of C57BL/6 mice after administration and placed in a 1.5 mL centrifuge tube containing EDTAN-K2. The collected whole blood was centrifuged at 2000 g, 4° C. for 10 min, and all plasma was divided and placed in another clean centrifuge tube, and then placed in a −20° C. refrigerator for testing.
Adjust the peristaltic pump device to ensure that it works normally, the liquid flows out smoothly and stably, and there is no air in the flow path. Anesthetize the mice after administration with a mixed anesthetic of 70% CO2 and 30% O2, After the animal is fully anesthetized, quickly open the chest cavity with surgical scissors to expose the heart. […] Turn on the peristaltic pump switch and perfuse for 2-5 minutes. The perfusion fluid is 100 U/1000 mL heparin sodium saline. After the perfusion is completed, use ophthalmic scissors and ophthalmic forceps to dissect the mouse brain tissue sample, immediately rinse the remaining blood on the tissue surface with ultrapure water within 5 minutes, wipe dry, weigh, add 4 times the volume of acetonitrile-water solution (10:90, v:v) and homogenize, and then place the homogenate in a −20° C. refrigerator for testing.
Calculate the ratio of the average drug concentration in brain tissue to that in plasma, i.e., the brain/plasma ratio.

Data set [2] is described as follows: Determination of half-life in C57BL/6 mice. The following applies: mouse, 2 mg/kg; male C57BL/6 mice, intravenous, 2 mpk, plasma. The format is in vivo. How it is done: C57BL/6 mice (male) were selected, and the compound of the present invention was intravenously administered at a dose of 2 mpk, About 0.03 mL of whole blood was collected from the mouse orbital venous plexus at 0 h before administration, 0.0833, 0.25, 0.5, 1, 2, 4, 6, 8 and 24 h after administration. The blood was placed in a centrifuge tube containing EDTA-K2 anticoagulant, and placed in crushed ice after collection. Centrifuge at 2000 g and 4° C. for 10 min within 0.5 hours, and 10 μL of plasma was quantitatively divided and placed in another clean centrifuge tube, placed in a −20° C. refrigerator, and the blood drug concentration was determined by LC-MS/MS method.

A further data set addresses T1, α-synuclein (Homo sapiens, UniProt P37840).
T1 construct: purchased Sino Biological
Kind of data set: Detection of the ability of compounds to inhibit α-synuclein self-aggregation by HPLC. Type of data set: biochemical. The following applies: test compound 200 μg/mL, α-synuclein 250 μg/ml, 37° C., 9 days; HPLC peak area of α-synuclein multimers vs model group; read-out: inhibition rate (%). As to the method: The test compound (for poorly soluble compounds, dissolve with an appropriate amount of DMSO first) and fresh α-synuclein monomers (purchased from Sino Biological) were added to pure water to a final protein concentration of 250 μg/ml, and the concentration of the test compound was 200 μg/mL, followed by incubation at 37° C. for 9 days. The peak area of α-synuclein multimers after incubation was detected by HPLC and the inhibition rate was calculated. […] Inhibition rate=(peak area of model group−peak area of example group)/peak area of model group×100%.

In the case of `CCCCC(Cc1c[nH]c2ccccc12)NC(=O)c1cc2ccc(N3CCN(C)CC3)cc2s1` (racemic) [Example 1, N-(1-(1H-indol-3-yl)hexane-2-yl)-6-(4-methylpiperazin-1-yl)benzo[b]thiophene-2-carboxamide], the Kp at 4 h in data set [1] was determined as 1.53. The compound also gave a half-life in data set [2] of 2.21 h. For the same compound, the inhibition at 200 µg/mL at α-synuclein amounted to 98.3%.

On to `CCCCC(Cc1c[nH]c2ccccc12)NC(=O)c1cnc(N2CCN(C)CC2)s1` (stereo not shown) [Comparative Example 1, reference compound], for which, in data set [1], the partition ratio (Kp) at 4 h stood at 0.35. This compound also showed a half-life in data set [2] of 0.39 h. With `CCCCC(Cc1c[nH]c2ccccc12)NC(=O)c1cc2ccc(N3CCN(C4CC4)CC3)cc2s1` (stereo not shown) [Example 3, N-(1-(1H-indol-3-yl)hexane-2-yl)-6-(4-cyclopropylpiperazin-1-yl) benzo[b]-thiophene-2-carboxamide], the Kp at 4 h in data set [1] is 0.38. The half-life in data set [2] was 1.46 h. In addition, the inhibition at 200 µg/mL at α-synuclein was found to be 95.3%. As to `CCCCC(Cc1c[nH]c2ccccc12)NC(=O)c1cc2ccc(N3CCN(C)CC3)cc2n1C` (stereo not shown) [Example 36, N-[1-(1H-indol-3-yl)hexyl-2-yl]-1-methyl-6-(4-methylpiperazin-1-yl)-1H-indole-2-carboxamide], at α-synuclein, the inhibition at 200 µg/mL was 85.3%. On the same count and under the same terms, in the case of `CC/C=C/C(Cc1c[nH]c2ccccc12)NC(=O)c1cc2ccc(N3CCN(C)CC3)cc2s1` (stereo not shown) [Example 37, (E)-N-(1-(1H-indol-3-yl)-3-hexene-2-yl)-6-(4-methylpiperazin-1-yl) benzo-[b]thiophene-2-carboxamide] it was 86.7%; in that of `CN(C)CCC(Cc1c[nH]c2ccccc12)NC(=O)c1cc2ccc(N3CCN(C)CC3)cc2s1` (stereo not shown) [Example 38], 78.3%; in that of `CCOCC(Cc1c[nH]c2ccccc12)NC(=O)c1cc2ccc(N3CCN(C)CC3)cc2s1` (stereo not shown) [Example 39, N-(1-ethoxy-3-(1H-indol-3-yl)propane-2-yl)-6-(4-methylpiperazin-1-yl) benzo[b]-thiophene-2-carboxamide], 92.6%. As to `CC(C)/C=C/C(Cc1c[nH]c2ccccc12)NC(=O)c1cc2ccc(N3CCN(C)CC3)cc2s1` (stereo not shown) [Example 40, (E)-N-(1-(1H-indol-3-yl)-S-methyl-3-hexene-2-yl)-6-(4-methylpiperazin-yl) benzo[b]-thiophene-2-carboxamide], the inhibition at 200 µg/mL at α-synuclein came to 76.8%. Regarding `CCOCCC(Cc1c[nH]c2ccccc12)NC(=O)c1cc2ccc(N3CCN(C)CC3)cc2s1` (stereo not shown) [Example 41, N-(4-ethoxy-1-(1H-indol-3-yl)butane-2-yl)-6-(4-methylpiperazin-1-yl) benzol[b]-thiophene-2-carboxamide], the inhibition at 200 µg/mL at α-synuclein amounted to 82.5%. Regarding `CCCC[C@@H](Cc1c[nH]c2ccccc12)NC(=O)c1cc2ccc(N3CCN(C)CC3)cc2s1` [Example 42, (S)—N-(1-(1H-indol-3-yl)hexane-2-yl)-6-(4-methylpiperazin-1-yl) benzo[b]thiophene-2-carboxamide], the Kp at 4 h in data set [1] turned out to be 2.05. In data set [2], this compound had a half-life of 1.17 h. The inhibition at 200 µg/mL at α-synuclein stood at 97.2%. As for `CCCC[C@H](Cc1c[nH]c2ccccc12)NC(=O)c1cc2ccc(N3CCN(C)CC3)cc2s1` [Example 43, (R)—N-(1-(1H-indol-3-yl)hexane-2-yl)-6-(4-methylpiperazin-1-yl) benzo[b]thiophene-2-carboxamide], in data set [1], the partition ratio (Kp) at 4 h amounted to 1.7. The same compound showed a half-life in data set [2] of 1.32 h. Further, the inhibition at 200 µg/mL at α-synuclein was 98.6%. Take `CCCCC(Cc1c[nH]c2ccccc12)NC(=O)c1cc2ccc(N3CCN(S(=O)(=O)C4CC4)CC3)cc2s1` (stereo not shown) [Example 44, 6-[4-(Cyclopropanesulfonyl)piperazine-1-yl]-N-[1-(1H-indol-3-yl)hexane-2-yl]-1-benzothiophene-2-carboxamide]: the inhibition at 200 µg/mL at α-synuclein worked out at 89.7%. In the case of `CCCCC(Cc1c[nH]c2ccccc12)NC(=O)c1cc2ccc(N3CCN(S(C)(=O)=O)CC3)cc2s1` (stereo not shown) [Example 45, N-[1-(1H-indol-3-yl)hexane-2-yl]-6-(4-methylsulfonylpiperazine-1-yl)-benzothiophene-2-carboxamide], at α-synuclein, the inhibition at 200 µg/mL turned out to be 82.3%.

Take `CCCCC(Cc1c[nH]c2ccccc12)NC(=O)c1cc2ccc(N3CCN(C)C(=O)C3)cc2s1` (stereo not shown) [Example 46, N-[1-(1H-indol-3-yl)hexane-2-yl]-6-(4-methyl-3-oxopiperazin-1-yl)-benzothiophene-2-carboxamide]: at α-synuclein, the inhibition at 200 µg/mL was determined as 78.9%. As for `CCCCC(Cc1c[nH]c2ccccc12)NC(=O)c1cc2ccc(N3CCN(C)CC3=O)cc2s1` (stereo not shown) [Example 47, N-[1-(1H-indol-3-yl)hexane-2-yl]-6-(4-methyl-2-oxypiperazin-1-yl)-1-benzothiophene-2-carboxamide], at α-synuclein, the inhibition at 200 µg/mL amounted to 73.5%. For the compound `CCCCC(Cc1c[nH]c2ccccc12)NC(=O)c1cc2ccc(N3CCC(C)(O)CC3)cc2s1` (stereo not shown) [Example 48, N-(1-(1H-indol-3-yl)hexane-2-yl)-6-(4-hydroxy-4-methylpiperidin-1-yl) benzo[b]-thiophene-2-carboxamide], the inhibition at 200 µg/mL on α-synuclein amounted to 96.5%.

`CCCCC(Cc1c[nH]c2ccccc12)NC(=O)c1cc2ccc(N3CC(C)(O)C3)cc2s1` (stereo not shown) [Example 49, N-(1-(1H-indol-3-yl)hexane-2-yl)-6-(3-hydroxy-3-methylazetidine-1-yl) benzo[b]-thiophene-2-carboxamide]: the inhibition at 200 µg/mL on α-synuclein is 92.9%.

Take `CCCCC(Cc1c[nH]c2ccccc12)NC(=O)c1cc2ccc(N3CC4(C3)CC(C)(O)C4)cc2s1` (stereo not shown) [Example 50, N-(1-(1H-indol-3-yl)hexane-2-yl)-6-(6-hydroxy-6-methyl-2-azaspiro [3.3]heptane-2-yl) benzo[b]thiophene-2-carboxamide]: the inhibition at 200 µg/mL at α-synuclein worked out at 95.7%. In the case of `CCCCC(Cc1c[nH]c2ccccc12)NC(=O)c1cc2ccc(N3CCC(C)(O)C3)cc2s1` (stereo not shown) [Example 51, N-(1-(1H-indol-3-yl)hexane-2-yl)-6-(3-hydroxy-3-methylpyrrolidin-1-yl) benzo[b]-thiophene-2-carboxamide], the inhibition at 200 µg/mL at α-synuclein was 90.3%.
